According to ChEMBL document CHEMBL4483862, “Open-source discovery of chemical leads for next-generation chemoprotective antimalarials” (2018):

System: Plasmodium berghei
Assay: Luciferase/luciferin-expressing antifolate-resistant parasites were used to infect a culture of HepG2 cells that were pre-incubated with compounds. Infected hepatocytes emit light due to the luciferase reaction. Assay results are presented as the percent inhibition of light emission compared to control. […]
Type: functional
Conditions: sporozoite; for IC90: read-out: LUCIFERASE INFECTION ASSAY - IC90
[1] = read-out: LUCIFERASE INFECTION ASSAY - IC50

## COc1cc(CNC(=O)Nc2nc3ccccc3s2)cc(OC)c1OC
HEPG2TOX_HILL_SLOPE 1.53, HEPG2TOX_R_SQUARED 0.847, PBLUC_HILL_SLOPE 0.688, PBLUC_R_SQUARED 0.648, read-out: LUCIFERASE INFECTION ASSAY - IC50
  IC50: 0.692 µM
  IC90: > 10 µM

## COc1cc(N(CC(=O)Nc2ccc(Cl)cc2)S(=O)(=O)c2ccc(Cl)cc2)c(Cl)cc1Cl
FFLUC_HILL_SLOPE 12.3, FFLUC_R_SQUARED 0.349, HEPG2TOX_HILL_SLOPE 3.41, HEPG2TOX_R_SQUARED 0.407, PBLUC_HILL_SLOPE 12, PBLUC_R_SQUARED 0.0202, read-out: LUCIFERASE INFECTION ASSAY - IC50
  IC50: 5.6 µM
  IC90: > 6.18 µM

## O=C(CSc1nnc(Cc2cccs2)n1C1CCCCC1)c1c[nH]c2ccccc12
[1]
  IC50: > 10 µM
  IC90: > 10 µM

## Cc1ccc2nc(NC(=O)c3cn(C)nc3-c3ccc4c(c3)OCCCO4)sc2c1
[1]
  IC50: > 10 µM
  IC90: > 10 µM

## C=CCn1c(C)cc(C(=O)CSc2nc3ccccc3[nH]2)c1C
PBLUC_HILL_SLOPE 12.6, PBLUC_R_SQUARED 0.563, read-out: LUCIFERASE INFECTION ASSAY - IC50
  IC50: 0.393 µM
  IC90: 0.467 µM

## O=C(NC1CC1)c1ccc(CN(C2CC2)S(=O)(=O)c2ccccc2F)cc1
[1]
  IC50: 1.29 µM
  IC90: 1.51 µM

## CCc1ccc(NC(=O)c2cc(OC)c(OC)c(OC)c2)cc1[N+](=O)[O-]
HEPG2TOX_HILL_SLOPE 7.15, HEPG2TOX_R_SQUARED 0.493, PBLUC_HILL_SLOPE 1.31, PBLUC_R_SQUARED 0.625, read-out: LUCIFERASE INFECTION ASSAY - IC50
  IC50: 6.01 µM
  IC90: > 10 µM

## Nc1nc(Sc2ncnc3sccc23)nc2sccc12
PBLUC_HILL_SLOPE 20, PBLUC_R_SQUARED 0.321, read-out: LUCIFERASE INFECTION ASSAY - IC50
  IC50: 7.96 µM
  IC90: 8.89 µM

## O=C(Nc1cccc(S(=O)(=O)NC2=NCCCCC2)c1)c1cncc(Br)c1
[1]
  IC50: > 10 µM
  IC90: > 10 µM

## Cc1cc(C)c(NC(=O)NCCCOCC(C)C)c(Cl)c1
[1]
  IC50: > 10 µM
  IC90: > 10 µM

## CCOC(=O)c1sc(N2CCCC2)c2c1CC(C)(C)CC2=O
[1]
  IC50: > 10.3 µM
  IC90: > 10.3 µM

## Fc1ccc(CNc2n[nH]c(=S)s2)cc1
FFLUC_HILL_SLOPE 2.08, FFLUC_R_SQUARED 0.432, read-out: LUCIFERASE INFECTION ASSAY - IC50
  IC50: > 13.7 µM
  IC90: > 13.7 µM

## CCN(c1ccc(NC(=O)CCc2ccccc2Cl)cc1)C(C)C
HEPG2TOX_HILL_SLOPE 1.73, HEPG2TOX_R_SQUARED 0.92, read-out: LUCIFERASE INFECTION ASSAY - IC50
  IC50: > 10 µM
  IC90: > 10 µM

## Cc1ccc(S(=O)(=O)N2CCN(C(=O)/C=C/c3ccsc3)CC2)cc1
FFLUC_HILL_SLOPE 16.5, FFLUC_R_SQUARED 0.182, read-out: LUCIFERASE INFECTION ASSAY - IC50
  IC50: > 10 µM
  IC90: > 10 µM

## O=C(Nc1nc(-c2ccco2)c(-c2ccco2)s1)c1cnc(Cl)c(Cl)c1
[1]
  IC50: > 10 µM
  IC90: > 10 µM

## N#Cc1nc(-c2ccccc2)nc2[nH]c(-c3ccccc3)c(C#N)c12
FFLUC_HILL_SLOPE 4.02, FFLUC_R_SQUARED 0.58, HEPG2TOX_HILL_SLOPE 1.18, HEPG2TOX_R_SQUARED 0.976, PBLUC_HILL_SLOPE 16.6, PBLUC_R_SQUARED 0.228, read-out: LUCIFERASE INFECTION ASSAY - IC50
  IC50: 8.59 µM
  IC90: 9.81 µM

## Cn1c(NCc2ccccc2F)nc2cnc(Nc3cccc(OC(F)(F)F)c3)cc21
[1]
  IC50: > 10 µM
  IC90: > 10 µM

## Cc1cc(CN2CCc3ccccc3C2)c(C)cc1O
HEPG2TOX_HILL_SLOPE 17.5, HEPG2TOX_R_SQUARED 0.797, read-out: LUCIFERASE INFECTION ASSAY - IC50
  IC50: > 10 µM
  IC90: > 10 µM

## COc1ccc(NC(=O)C2(C)Cc3c(-c4cccc(NC(C)=O)c4)ccnc3O2)cc1 (stereo not drawn)
HEPG2TOX_HILL_SLOPE 2.96, HEPG2TOX_R_SQUARED 0.838, PBLUC_HILL_SLOPE 2.85, PBLUC_R_SQUARED 0.605, read-out: LUCIFERASE INFECTION ASSAY - IC50
  IC50: 1.66 µM
  IC90: 3.58 µM

## CNC(=O)c1ccc(CN(C2CC2)S(=O)(=O)c2ccc(C(F)(F)F)cc2)cc1
PBLUC_HILL_SLOPE 1.42, PBLUC_R_SQUARED 0.391, read-out: LUCIFERASE INFECTION ASSAY - IC50
  IC50: 3.3 µM
  IC90: > 10 µM

## CC(=O)Nc1ccc2c(Cn3ncc(Cl)c(Cl)c3=O)cc(=O)oc2c1
HEPG2TOX_HILL_SLOPE 3.1, HEPG2TOX_R_SQUARED 0.966, PBLUC_HILL_SLOPE 14.3, 0.748, PBLUC_R_SQUARED 0.481, 0.667, read-out: LUCIFERASE INFECTION ASSAY - IC50
  IC50: 5.45 µM
  IC90: 9.76 µM

## CC(=O)c1csc(NC(=O)c2ccc(CSc3ccccc3)o2)n1
[1]
  IC50: > 10 µM
  IC90: > 10 µM

## Cn1c(NCc2ccccc2)nc2cnc(-c3ccsc3)cc21
[1]
  IC50: > 10 µM
  IC90: > 10 µM

## CCN1C/C(=C/c2ccccc2OC(F)F)C(=O)/C(=C/c2ccccc2OC(F)F)C1
HEPG2TOX_HILL_SLOPE 12.5, HEPG2TOX_R_SQUARED 0.688, PBLUC_HILL_SLOPE 10.4, PBLUC_R_SQUARED 0.447, read-out: LUCIFERASE INFECTION ASSAY - IC50
  IC50: 9.35 µM
  IC90: > 10 µM

## CC(C)(C)NS(=O)(=O)c1cccc2c(N)cccc12
FFLUC_HILL_SLOPE 12.8, FFLUC_R_SQUARED 0.416, HEPG2TOX_HILL_SLOPE 12.3, HEPG2TOX_R_SQUARED 0.393, PBLUC_HILL_SLOPE 11.3, PBLUC_R_SQUARED 0.345, read-out: LUCIFERASE INFECTION ASSAY - IC50
  IC50: 4.49 µM
  IC90: 5.45 µM

## Cc1ccc(S(=O)(=O)NN(C)c2nc3ccccc3nc2C(F)(F)F)cc1
HEPG2TOX_HILL_SLOPE 2.57, HEPG2TOX_R_SQUARED 0.987, PBLUC_HILL_SLOPE 18.2, PBLUC_R_SQUARED 0.483, read-out: LUCIFERASE INFECTION ASSAY - IC50
  IC50: 2.66 µM
  IC90: 3.01 µM

## Cc1ccc2nc(NC(=O)c3ccc(OCc4nccn4C)cc3)sc2c1
[1]
  IC50: > 10 µM
  IC90: > 10 µM

## O=c1cc(-c2ccccc2)[nH]c2cc(-c3cccs3)nn12
[1]
  IC50: 8.64 µM
  IC90: > 11.2 µM

## CC(C)[C@@H](CO)Nc1nccn2c(-c3cccc(OC(F)(F)F)c3)cnc12
HEPG2TOX_HILL_SLOPE 1.77, HEPG2TOX_R_SQUARED 0.938, PBLUC_HILL_SLOPE 1.99, PBLUC_R_SQUARED 0.624, read-out: LUCIFERASE INFECTION ASSAY - IC50
  IC50: 2.05 µM
  IC90: 6.18 µM

## Cc1c(C)n(CCCO)c2ncn3nc(-c4ccccc4O)nc3c12
FFLUC_HILL_SLOPE 0.508, FFLUC_R_SQUARED 0.752, HEPG2TOX_HILL_SLOPE 10.5, HEPG2TOX_R_SQUARED 0.849, PBLUC_HILL_SLOPE 1, PBLUC_R_SQUARED 0.894, read-out: LUCIFERASE INFECTION ASSAY - IC50
  IC50: 0.0964 µM
  IC90: 0.862 µM

## CC12CCC(=O)C(C(F)(F)F)=C1C=CC1C2CCC2(C)C(O)CCC12 (stereo not drawn)
HEPG2TOX_HILL_SLOPE 4.77, HEPG2TOX_R_SQUARED 0.78, PBLUC_HILL_SLOPE 14.8, PBLUC_R_SQUARED 0.24, read-out: LUCIFERASE INFECTION ASSAY - IC50
  IC50: 3.1 µM
  IC90: 3.6 µM

## CCn1c(=O)n(CC(=O)Nc2ccc(NC(=O)NC3CC3)cc2)c2ccccc21
[1]
  IC50: > 10 µM
  IC90: > 10 µM

## CN1\C(=C/C=N/N=C/C2=C(N3CCOCC3)C(=C\c3ccc([N+](=O)[O-])cc3)/CC2)C(C)(C)c2ccccc21
PBLUC_HILL_SLOPE 22.4, PBLUC_R_SQUARED 0.296, read-out: LUCIFERASE INFECTION ASSAY - IC50
  IC50: 8.58 µM
  IC90: 9.46 µM

## Nc1ccc(-c2cn3c(-c4ccc(O)cc4)cnc3cn2)cn1
PBLUC_HILL_SLOPE 11.6, PBLUC_R_SQUARED 0.257, read-out: LUCIFERASE INFECTION ASSAY - IC50
  IC50: 10.2 µM
  IC90: > 10.9 µM
